# Experimental data as given in publication PMC6968547, “Design, synthesis and cholinesterase inhibitory properties of new oxazole benzylamine derivatives” (Journal of Enzyme Inhibition and Medicinal Chemistry, 2020).
# Like-named read-outs stand apart in the source and are kept apart here.
# Legend:
# [1] = molecular target: T1, BChE isolated from human plasma (Homo sapiens, UniProt P06276); experiment: Reversible inhibition of BChE, Ellman method; format: biochemical; conditions: for IC50: 0.1 M phosphate buffer pH 7.4, 25 °C, substrate ATCh, at least three experiments
# T1 construct: BChE isolated from human plasma; from tissue; host or cells: human plasma
# T1 sequence (P06276 29-602): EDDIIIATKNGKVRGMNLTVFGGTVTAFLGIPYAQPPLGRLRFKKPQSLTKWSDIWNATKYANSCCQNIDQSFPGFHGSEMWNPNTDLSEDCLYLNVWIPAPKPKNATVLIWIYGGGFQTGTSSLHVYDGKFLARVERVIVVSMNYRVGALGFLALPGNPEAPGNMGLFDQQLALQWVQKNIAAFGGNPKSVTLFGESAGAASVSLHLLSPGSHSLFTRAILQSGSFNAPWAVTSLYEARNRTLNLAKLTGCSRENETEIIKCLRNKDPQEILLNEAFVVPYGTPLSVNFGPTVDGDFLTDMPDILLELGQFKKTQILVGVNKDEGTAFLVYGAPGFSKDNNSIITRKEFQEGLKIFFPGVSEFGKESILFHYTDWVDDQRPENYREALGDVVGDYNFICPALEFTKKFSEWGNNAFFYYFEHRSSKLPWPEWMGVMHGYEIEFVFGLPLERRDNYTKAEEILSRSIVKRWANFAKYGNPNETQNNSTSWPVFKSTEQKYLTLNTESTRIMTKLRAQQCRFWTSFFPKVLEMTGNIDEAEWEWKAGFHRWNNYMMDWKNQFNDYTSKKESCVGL
# Procedure: Inhibition potency of novel compounds was evaluated for recombinant human AChE (prepared as described earlier[25] and kindly donated by Prof Palmer Taylor, Skaggs School of Pharmacy and Pharmaceutical Sciences, University of California at San Diego, La Jolla, USA) and BChE isolated from human plasma (kindly donated by late Dr Douglas Cerasoli and Dr David Lenz, […], Edgewood, MD). The inhibition mixture contained a 0.1 M phosphate buffer, pH 7.4, enzyme, tested compound, and reagent, 5,5'-dithiobis(2-nitrobenzoic acid) (DTNB, 0.3 mM; Sigma Chemical Co., St. Louis, MO, USA). Enzyme activity was measured upon addition of substrate, acetylthiocholine (ATCh, 0.2 or 0.1 mM; Sigma Chemical Co., St. Louis, MO, USA) by the Ellman method[26] at 25 °C and 412 nm, on a Tecan Infinite M200PRO plate reader (Tecan Austria, GmbH, Salzburg, Austria). Due to the low solubility, a stock solution of the tested compounds was prepared in DMSO or methanol (Kemika, Zagreb, Croatia), and a corresponding solvent was in controls as well. The IC50 values were determined from at least three experiments by a nonlinear fit of the compound concentration logarithm values vs. % of enzyme activity using Prism6 software (GraphPad Prism 6 Software, San Diego, USA).
# [2] = molecular target: T2, recombinant human AChE (Homo sapiens, UniProt P22303); experiment: Reversible inhibition of AChE, Ellman method; format: biochemical; conditions: 0.1 M phosphate buffer pH 7.4, 25 °C, substrate ATCh; maximal tested concentration 100 µM for the trans derivatives (DMSO inhibits AChE); read-out: IC50 AChE (IC50 ± SE)
# T2 construct: made in house
# T2 sequence (P22303 32-614): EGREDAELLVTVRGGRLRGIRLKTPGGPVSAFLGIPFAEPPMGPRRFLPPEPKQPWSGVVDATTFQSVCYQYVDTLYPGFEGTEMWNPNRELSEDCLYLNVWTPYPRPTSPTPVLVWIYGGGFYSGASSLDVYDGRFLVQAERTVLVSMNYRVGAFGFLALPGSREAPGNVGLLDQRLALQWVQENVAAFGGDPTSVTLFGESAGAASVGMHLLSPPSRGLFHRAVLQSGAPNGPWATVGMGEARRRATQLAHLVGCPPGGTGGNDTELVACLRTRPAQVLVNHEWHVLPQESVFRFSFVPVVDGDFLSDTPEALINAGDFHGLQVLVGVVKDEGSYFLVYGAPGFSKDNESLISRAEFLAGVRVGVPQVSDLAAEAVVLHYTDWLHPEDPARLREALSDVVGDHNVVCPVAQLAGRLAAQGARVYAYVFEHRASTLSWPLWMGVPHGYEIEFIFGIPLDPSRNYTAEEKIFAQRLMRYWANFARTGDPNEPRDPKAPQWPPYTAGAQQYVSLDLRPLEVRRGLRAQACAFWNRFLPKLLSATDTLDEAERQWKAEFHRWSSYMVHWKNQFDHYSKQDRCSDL
# [3] = read-out: IC50 BChE (IC50 ± SE)
Compound,"IC50 [1, 3]",IC50 [2],fold higher potency for BChE than counterpart trans-6 ([1]; ratio of IC50 vs trans-6),IC50 ([1]; IC50 BChE (IC50 ± SE)),"times more potent inhibitor of BChE than trans-12, trans-10 and trans-8 ([1]; ratio of IC50 vs trans-12, trans-10, trans-8)",fold lower BChE binding affinity than the most potent inhibitor trans-12 ([1]; ratio of IC50 vs trans-12)
"c1ccc(CNc2ccc3ccc4ocnc4c3c2)cc1 [Compound 19, N-benzylnaphtho[1,2-d]oxazol-8-amine]",140 ± 24 µM,68 ± 25 µM,,,,
"Fc1ccc(CNc2ccc3ccc4ocnc4c3c2)cc1 [Compound 20, N-(4-fluorobenzyl)naphtho[1,2-d]oxazol-8-amine]",12 ± 1.3 µM,45 ± 17 µM,about 8 fold,,,
"c1csc(CNc2ccc3ccc4ocnc4c3c2)c1 [Compound 21, N-(thiophen-2-ylmethyl)naphtho[1,2-d]oxazol-8-amine]",35 ± 7.1 µM,51 ± 20 µM,,,,
"Nc1ccc2ccc3ocnc3c2c1 [Compound 23, Naphtho[1,2-d]oxazol-8-amine]",1000 ± 650 µM,120 ± 46 µM,,,,
"CCN(CC)C(C)CN1c2ccccc2Sc2ccccc21 (centres unmarked) [Ethopropazine, reference compound]",,,,0.046 ± 0.0037 µM,,
"C(=C/c1cnco1)/c1ccc(NCc2cccs2)cc1 [cis-18, (Z)-4–(2-(oxazol-5-yl)vinyl)-N-(thiophen-2-ylmethyl)aniline]",5.7 ± 0.8 µM,160 ± 100 µM,,,about 5 times,
"Nc1ccc(/C=C\c2cnco2)cc1 [cis-22, (Z)-4–(2-(oxazol-5-yl)vinyl)aniline]",110 ± 58 µM,190 ± 100 µM,,,,
"C(=C\c1cnco1)/c1ccc(NCc2ccccc2)cc1 [trans-2, (E)-N-benzyl-4–(2-(oxazol-5-yl)vinyl)aniline]",120 ± 22 µM,> 100 µM,,,,
"Cc1ccc(CNc2ccc(/C=C/c3cnco3)cc2)cc1 [trans-3, (E)-N-(4-methylbenzyl)-4–(2-(oxazol-5-yl)vinyl)aniline]",120 ± 19 µM,> 100 µM,,,,
"COc1ccc(CNc2ccc(/C=C/c3cnco3)cc2)cc1 [trans-4, (E)-N-(4-methoxybenzyl)-4–(2-(oxazol-5-yl)vinyl)aniline]",110 ± 15 µM,> 100 µM,,,,
"Clc1ccc(CNc2ccc(/C=C/c3cnco3)cc2)cc1 [trans-5, (E)-N-(4-chlorobenzyl)-4–(2-(oxazol-5-yl)vinyl)aniline]",87 ± 12 µM,> 100 µM,,,,
"Fc1ccc(CNc2ccc(/C=C/c3cnco3)cc2)cc1 [trans-6, (E)-N-(4-fluorobenzyl)-4–(2-(oxazol-5-yl)vinyl)aniline]",80 ± 10 µM,> 100 µM,,,,
"Cc1cccc(CNc2ccc(/C=C/c3cnco3)cc2)c1 [trans-7, (E)-N-(3-methylbenzyl)-4–(2-(oxazol-5-yl)vinyl)aniline]",130 ± 26 µM,> 100 µM,,,,
"COc1cccc(CNc2ccc(/C=C/c3cnco3)cc2)c1 [trans-8, (E)-N-(3-methoxybenzyl)-4–(2-(oksazol-5-yl)vinyl)aniline]",36 ± 4.4 µM,> 100 µM,,,,
"Fc1cccc(CNc2ccc(/C=C/c3cnco3)cc2)c1 [trans-10, (E)-N-(3-fluorobenzyl)-4–(2-(oxazol-5-yl)vinyl)aniline]",32 ± 5.2 µM,> 100 µM,,,,
"Cc1ccccc1CNc1ccc(/C=C/c2cnco2)cc1 [trans-11, (E)-N-(2-methylbenzyl)-4–(2-(oxazol-5-yl)vinyl)aniline]",160 ± 35 µM,> 100 µM,,,,5.5 fold
"COc1ccccc1CNc1ccc(/C=C/c2cnco2)cc1 [trans-12, (E)-N-(2-methoxybenzyl)-4–(2-(oxazol-5-yl)vinyl)aniline]",28 ± 5.2 µM,> 100 µM,,,,
"C(=C\c1cnco1)/c1ccc(NCc2ccco2)cc1 [trans-17, (E)-N-(furan-2-ylmethyl)-4–(2-(oxazol-5-yl)vinyl)aniline]",65 ± 10 µM,> 100 µM,,,,
